Results on 1 molecule are retold here after paper PMC10611619, “[^99mTc]Tc-PentixaTec: development, extensive pre-clinical evaluation, and first human experience” (European Journal of Nuclear Medicine and Molecular Imaging, 2023).

Where two headings read alike, the source gives them in different places. Where a SMILES comes first, the peptide text is derived from it. Side-chain parts run from the residue outwards. [ ]: non-standard residue; d: D form. The star is where a group is joined. 2Nal = N[C@@H](Cc1ccc2ccccc2c1)C(=O)O; dNMeOrn = CN[C@H](CCCN)C(=O)O; 4Abz = Nc1ccc(C(=O)O)cc1; X1 = NCCNCC(CNCCN)C(=O)*; dDap = NC[C@@H](N)C(=O)O

The nature of data set [1]: In vitro stability in various media (radio-TLC). Type of data set: in vitro ADME. The settings on record: for percentage of intact tracer: original product formulation. On the procedure:
Solutions were incubated for up to 13 h at room temperature. Sequential radio-thin layer chromatography was performed after 20 min, 40 min, 100 min, 2.6 h, 3.6 h, 4.4 h, and 13 h of incubation, and the amount of intact ligand was analyzed by integration of the TLC chromatogram.

For data set [2], the system named is hCXCR4 expressing Chem-1 cells. Briefly: Dual tracer internalization studies with [^125I]FC-131 as internal reference. Type of data set: cell-based, human. The procedure:
Dual tracer internalization studies using [^125I]FC-131 as internal reference were conducted in hCXCR4 expressing Chem-1 cells in analogy to a previously established protocol. A detailed assay protocol is provided in the supplementary material section.
On the day prior to the experiment, Chem-1 cells were seeded in 24-well-plates at a density of app. 1·10^5 cells per well. On the day of the experiment, the culture medium was removed and the cells were washed once with 250 µL of unsupplemented medium before being left to equilibrate in 200 µL of assay medium (DMEM/F-12 containing 5% BSA) at 37°C for a minimum of 15 min before the experiment. Cells were then coincubated with the respective ^99mTc-labeled compound of interest (0.2 nM) and [^125I]FC-131 (0.2 nM) in the absence (total binding) or presence (non-specific binding) of 100 µM AMD3100 for different time points up to 120 min at 37°C (n=3 wells, respectively, per time point). Incubation was terminated by placing the plate on an ice pack for app. 1 min and by subsequent removal of the incubation medium. Cells were thoroughly rinsed with 250 µL of HBSS. After washing twice with 250 µL of ice cold acid wash buffer (0.02 M NaOAc buffered with AcOH to pH = 5), cells were lysed with 250 µL of 1 N NaOH. The lysate was tranferred to vials and combined with 250 µL of HBSS used for rinsing the wells. Quantification of the amount of free, acid-releasable and internalized ^99mTc- and ^125I-activity was performed using dual isotope protocol on a WIZARD^2® 2480 automatic γ-Counter (Perkin Elmer, Waltham MA, USA).
All data were corrected for non-specific internalization in the presence of […] AMD3100 and were then normalized to the specific internalization observed of the standard radioligand [^125I]FC-131.

Data set [3] in a line: Blood clearance / excretion in patients. The format is in vivo, human. The settings on record: for half-life: human, whole blood, iv. On the procedure:
[^99mTc]Tc-PentixaTec scans were performed using a dual head gamma camera (GE Discovery NM/CT 670 Pro, Milwaukee, WI, USA). In the four patients undergoing dosimetry, planar dynamic whole body scans were performed 5 min, 30 min, and 1 h with a bed speed of 30 cm/min; 2 h, 3 h, and 5 h with a speed of 12 cm/min; and 24 h with a speed of 5 cm/min after tracer injection. SPECT/CT imaging was performed following the 3-h planar imaging with 60 views and a frame duration of 8 s. Attenuation maps were generated on the basis of low-dose CT.
Venous blood samples (2.7 mL) were drawn directly before each planar scan. A cross-calibrated well-counter (Digibase, Ametek, Oak Ridge, TN, USA) was used to measure activity in the blood samples, resulting in the average activity per mL blood. Plasma half-life was calculated using NUKFIT software.

The test system of data set [4] is Jurkat xenograft bearing CB17/SCID mice. Briefly: Biodistribution in Jurkat xenograft-bearing mice, 1 h p.i. The format is in vivo. To be noted: n = 5, mean ± SD. The procedure:
Female CB17/SCID mice bearing subcutaneous Jurkat human T cell lymphoma xenografts (for more detailed information, see supplemental material) were injected intravenously with the respective ^99mTc-labeled tracer (5–20 MBq, 0.1–0.2 nmol/mouse) under isofluorane anesthesia and were sacrificed at 1 h post-injection (p.i.). The organs of interest were dissected, and the activity concentration in weighed tissue samples was quantified using a WIZARD^2® 2480 automatic γ-Counter from Perkin Elmer (Waltham MA, USA). Biodistribution data are given in %iD/g and represent means ± SD (groups of n = 4–5 animals). Statistical analysis (t-test) was performed using GraphPad Prism.
To establish tumor xenografts, Jurkat cells (2 – 3x10^7 cells) were suspended in a mixture of RPMI 1640 medium and Matrigel (1/1; v/v) (BD Biosciences, Heidelberg, Germany), and injected subcutaneously into the right shoulder of 6–10 weeks old CB17-SCID mice from either Charles River GmbH (Sulzfeld, Germany) or the in-house mouse breeding facility. As soon as tumors had grown to a diameter of 5–8 mm (4 – 10 weeks after inoculation), mice were used for the experiments.

Take `C[C@@H](NC(=O)[C@@H](CCCNC(=N)N)NC(=O)[C@@H](CN)NC(=O)C(CNCCN)CNCCN)C(=O)Nc1ccc(C(=O)NCCC[C@@H]2C(=O)N[C@@H](CCCNC(=N)N)C(=O)N[C@@H](Cc3ccc4ccccc4c3)C(=O)NCC(=O)N[C@H](Cc3ccc(O)cc3)C(=O)N2C)cc1` [[^99mTc]Tc-N4-L6-CPCR4, [^99mTc]Tc-N4-dap-r-a-Abz-CPCR4, metal not drawn] (cyclo([dY][dNMeOrn]([4Abz-dA-dR-dDap-X1])R[2Nal]G)): the “stability in saline and challenging conditions” value in data set [1] (diluted with saline, citrate and DTPA, room temperature) is recorded as “progressive decomposition”. The “percentage of intact tracer” value in data set [1] (start) came to 94.5%; in data set [1] (within 2.5 h) it was 90.6%. Besides, the “stability in physiological media” value in data set [1] (whole blood, serum, human serum albumin (2.5 and 5%), 13 h, room temperature) is recorded as “fully stable”. Moreover, in data set [2] (2 h), the “internalized activity in % of total cellular activity” value came to 97%. Besides, in data set [2] (2 h, 37°, 0.2 nM), the “absolute intracellular tracer accumulation” value is given as ~40 % of added dose. Moreover, in data set [2] (120 min, normalized to specific internalization of [^125I]FC-131, Chem-1 cells), the “Internalization (% of reference)” value is 694 (120 min) % of reference. Further, the “internalization area under the curve (AUC)” value in data set [2] (internalization kinetics, Fig. 1) was determined as 3799. The hepatobiliary excretion result in data set [3] was “no significant hepatobiliary excretion”. The half-life in data set [3] (read-out: plasma half-life, median) was 19 min; in data set [3] (read-out: plasma half-life, range), 15 to 25 min. Moreover, the “Biodistribution Tumor (tumor accumulation)” value in data set [4] (Jurkat xenograft) is 8.6 ± 1.3 %iD/g. Further, the “Biodistribution Muscle” value in data set [4] turned out to be 0.3 ± 0.05 %iD/g. Besides, the “Biodistribution Spleen” value in data set [4] is recorded as 5.6 ± 0.8 %iD/g.
